Patent US20240343717A1, “MICROBIOCIDAL PYRAZOLE DERIVATIVES” (SYNGENTA CROP PROTECTION AG, priority 2021, published 2024)

Tests used:
[1] = tested on: Gibberella zeae (Fusarium graminearum); test: whole plant or invertebrate; format: in vivo; conditions: in Triticum aestivum, read-out: control of Gibberella zeae
[2] = tested on: Mycosphaerella graminicola (Septoria tritici); test: Mycosphaerella graminicola (Septoria tritici) / liquid culture (Septoria blotch); format: cell-based; conditions: Zymoseptoria tritici, growth inhibition photometrically 4-5 days after application, read-out: control of Mycosphaerella graminicola
In short: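 Conidia suspended in potato dextrose broth and added to test compound supplied in DMSO in 96-well plates. Incubated at 24 °C, and growth inhibition read photometrically 4-5 days after application.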

[3] = tested on: Phaeosphaeria nodorum (Septoria nodorum); test: Phaeosphaeria nodorum (Septoria nodorum) / wheat / leaf disc preventative (glume blotch); format: in vivo; conditions: Parastagonospora nodorum, foliar, wheat leaf segments, inoculated 2 days after application
In short: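 Wheat cv. Kanzler leaf segments on agar sprayed preventatively with formulated compound diluted in water, then inoculated with spore suspension 2 days after application. Incubated at 20° C, 75% rh, 12 h light/12 h dark; percent disease control versus untreated scored 5-7 days after application.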

[4] = tested on: Botryotinia fuckeliana (Botrytis cinerea); test: Botryotinia fuckeliana (Botrytis cinerea) / liquid culture (gray mould); format: cell-based; conditions: growth inhibition photometrically 3-4 days after application, read-out: control of Botryotinia fuckeliana
In short: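 Conidia suspended in Vogels broth and added to compound dispensed from DMSO. Incubated at 24°C, with growth inhibition measured photometrically 3–4 days later.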

[5] = tested on: Mycosphaerella arachidis (Cercospora arachidicola); test: Mycosphaerella arachidis (Cercospora arachidicola) / liquid culture (early leaf spot); format: cell-based; conditions: growth inhibition photometrically 4-5 days after application, read-out: control of Mycosphaerella arachidis
In short: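 Spores taken straight from cryostorage are suspended in potato dextrose broth and added to test compound in DMSO. Plates are incubated at 24° C. Growth inhibition is scored photometrically 4-5 days after application.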

[6] = tested on: Fusarium culmorum; test: microbe, parasite or virus in culture; format: cell-based; conditions: read-out: control of Fusarium culmorum
[7] = tested on: Monographella nivalis (Microdochium nivale); test: Monographella nivalis (Microdochium nivale) / liquid culture (foot rot cereals); format: cell-based; conditions: growth inhibition photometrically 4-5 days after application, read-out: control of Monographella nivalis
In short: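 Fungal conidia mixed directly into potato dextrose broth and added to test compound delivered in DMSO. Incubated at 24° C; growth inhibition read photometrically 4-5 days after application.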

[8] = tested on: Pyrenophora teres; test: Pyrenophora teres / barley / leaf disc preventative (net blotch); format: in vivo; conditions: foliar, barley leaf segments, inoculated 2 days after application
In short: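 Barley cv. Hasso leaf segments on agar sprayed with formulated compound, inoculated with spores 2 days later. Incubated at 20 °C, 65% rh, 12 h light/dark; disease control versus untreated assessed 5–7 days after application.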

[9] = tested on: Fusarium culmorum; test: whole plant or invertebrate; format: in vivo; conditions: in Triticum aestivum, read-out: control of Fusarium culmorum
[10] = tested on: Alternaria solani; test: Alternaria solani / tomato / leaf disc (early blight); format: in vivo; conditions: foliar, tomato leaf disks, sprayed 2 days before inoculation, compared to untreated control
Experimental: Example B1: Alternaria solani/Tomato/Leaf Disc (Early Blight) Tomato leaf disks cv. Baby are placed on agar in multiwell plates (24-well format) and sprayed with the formulated test compound diluted in water. The leaf disks are inoculated with a spore suspension of the fungus 2 days after application. The inoculated leaf disks are incubated at 23° C./21° C.

[11] = tested on: Blumeria graminis f. sp. tritici (Erysiphe graminis f. sp. tritici); test: Blumeria graminis f. sp. tritici / wheat / leaf disc preventative (powdery mildew on wheat); format: in vivo; conditions: foliar, wheat leaf segments, inoculated 1 day after application
In short: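 Wheat cv. Kanzler leaf segments on agar sprayed with formulated compound in water, inoculated 1 day later by shaking mildew-infected plants overhead. Incubated at 20° C, 60% rh, 24 h dark then 12 h light/12 h dark. Percent disease control versus untreated scored 6-8 days after application.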

[12] = tested on: Glomerella lagenarium (Colletotrichum lagenarium); test: Glomerella lagenarium (Colletotrichum lagenarium) / liquid culture (anthracnose); format: cell-based; conditions: Colletotrichum orbiculare, growth inhibition photometrically 3-4 days after application, read-out: control of Glomerella lagenarium
In short: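 Cryo-stored conidia in potato dextrose broth were added to test compound in DMSO. Plates were incubated at 24° C, and growth inhibition was read photometrically 3-4 days after application.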

[13] = tested on: Sclerotinia sclerotiorum; test: Sclerotinia sclerotiorum / liquid culture (cottony rot); format: cell-based; conditions: growth inhibition photometrically 3-4 days after application, read-out: control of Sclerotinia sclerotiorum
Experimental: Example B15: Sclerotinia sclerotiorum/Liquid Culture (Cottony Rot) Mycelia fragments of a newly grown liquid culture of the fungus are directly mixed into nutrient broth (PDB potato dextrose broth). After placing a (DMSO) solution of test compound into a microtiter plate (96-well format) the nutrient broth containing the fungal material is added. The test plates are incubated at 24° C. and the inhibition of growth is determined photometrically 3-4 days after application.

Cn1cc(C(C)(CNC(=O)c2nnc(-c3ccc(F)cc3F)s2)c2cccc(Br)n2)cn1 (stereo not shown) [Compound P-5, N-[2-(6-bromo-2-pyridyl)-2-(1-methylpyrazol-4-yl)propyl]-5-(2,4-difluorophenyl)-1,3,4-thiadiazole-2-carboxamide]
≥ 80%: pest or weed control at 200 ppm [1] | inhibition of growth at 20 ppm [2] | pest or weed control at 200 ppm [3] | inhibition of growth at 20 ppm [4] | inhibition of growth at 20 ppm [5] | inhibition of growth at 20 ppm [6] | inhibition of growth at 20 ppm [7] | pest or weed control at 200 ppm [8] | pest or weed control at 200 ppm [9] | pest or weed control at 200 ppm [10] | pest or weed control at 200 ppm [11] | inhibition of growth at 20 ppm [12]

Cc1cccc(C(C)(CNC(=O)c2cc(-c3ccc(F)cc3F)on2)c2cnn(C)c2)n1 (stereo not shown) [Compound P-16, 5-(2,4-difluorophenyl)-N-[2-(1-methylpyrazol-4-yl)-2-(6-methyl-2-pyridyl)propyl] isoxazole-3-carboxamide]
≥ 80%: pest or weed control at 200 ppm [1] | inhibition of growth at 20 ppm [2] | inhibition of growth at 20 ppm [4] | inhibition of growth at 20 ppm [5] | inhibition of growth at 20 ppm [6] | inhibition of growth at 20 ppm [13] | inhibition of growth at 20 ppm [7] | pest or weed control at 200 ppm [8] | pest or weed control at 200 ppm [9] | pest or weed control at 200 ppm [11] | inhibition of growth at 20 ppm [12]

CCC(CNC(=O)c1cc(-c2ccc(F)cc2F)on1)(c1cnn(C)c1)c1cccc(Cl)n1 (stereo not shown) [Compound P-31, N-[2-(6-chloro-2-pyridyl)-2-(1-methylpyrazol-4-yl)butyl]-5-(2,4-difluorophenyl) isoxazole-3-carboxamide]
≥ 80%: inhibition of growth at 20 ppm [2] | pest or weed control at 200 ppm [3] | inhibition of growth at 20 ppm [4] | inhibition of growth at 20 ppm [5] | inhibition of growth at 20 ppm [6] | inhibition of growth at 20 ppm [13] | inhibition of growth at 20 ppm [7] | pest or weed control at 200 ppm [8] | pest or weed control at 200 ppm [9] | pest or weed control at 200 ppm [10] | pest or weed control at 200 ppm [11] | inhibition of growth at 20 ppm [12]

Cn1cc([C@@](C)(CNC(=O)c2nnc(-c3ccc(F)cc3F)s2)c2cccc(Cl)n2)cn1 [Compound P-34, N-[(2S)-2-(6-chloro-2-pyridyl)-2-(1-methylpyrazol-4-yl)propyl]-5-(2,4-difluorophenyl)-1,3,4-thiadiazole-2-carboxamide]
≥ 80%: inhibition of growth at 20 ppm [2] | pest or weed control at 200 ppm [3] | inhibition of growth at 20 ppm [4] | inhibition of growth at 20 ppm [5] | inhibition of growth at 20 ppm [6] | inhibition of growth at 20 ppm [13] | inhibition of growth at 20 ppm [7] | pest or weed control at 200 ppm [8] | pest or weed control at 200 ppm [9] | pest or weed control at 200 ppm [10] | pest or weed control at 200 ppm [11] | inhibition of growth at 20 ppm [12]

COc1cc(Cl)nc([C@@](C)(CNC(=O)c2cc(-c3ccc(F)cc3F)no2)c2cnn(C)c2)c1 [Compound P-46, N-[(2R)-2-(6-chloro-4-methoxy-2-pyridyl)-2-(1-methylpyrazol-4-yl)propyl]-3-(2,4-difluorophenyl) isoxazole-5-carboxamide]
≥ 80%: pest or weed control at 200 ppm [1] | inhibition of growth at 20 ppm [2] | inhibition of growth at 20 ppm [4] | inhibition of growth at 20 ppm [5] | inhibition of growth at 20 ppm [6] | inhibition of growth at 20 ppm [7] | pest or weed control at 200 ppm [9] | inhibition of growth at 20 ppm [12]
